The values that follow come from US10392369B2, “N-[(pyrimidinyloxy)propanyl]benzamides” (Boehringer Ingelheim International GmbH, priority 2016, dated 2019).

Read-outs that look alike come from different tables or passages of the source.

For assay [1], the target named is T1, human orexin 2 receptor (Homo sapiens, UniProt O43614).
T1 construct: stably expressing the full-length human orexin 2 receptor; expressed in transfected cells; host or cells: CHO-K1 (CHO-K1/hOx2), co-expressing the aequorin photoprotein
T1 sequence (O43614 1-444): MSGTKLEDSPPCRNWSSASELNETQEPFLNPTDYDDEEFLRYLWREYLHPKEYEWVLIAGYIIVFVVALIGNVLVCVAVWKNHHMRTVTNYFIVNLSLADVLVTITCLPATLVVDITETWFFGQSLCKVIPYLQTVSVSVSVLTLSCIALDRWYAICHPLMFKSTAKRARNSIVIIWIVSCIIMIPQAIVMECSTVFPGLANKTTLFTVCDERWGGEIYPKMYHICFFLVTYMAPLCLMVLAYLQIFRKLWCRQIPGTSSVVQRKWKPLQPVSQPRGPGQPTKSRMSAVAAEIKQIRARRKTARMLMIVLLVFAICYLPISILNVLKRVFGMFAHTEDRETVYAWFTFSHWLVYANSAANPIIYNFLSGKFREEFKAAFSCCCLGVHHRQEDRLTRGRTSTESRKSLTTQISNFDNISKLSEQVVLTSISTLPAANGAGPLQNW
The assay is described as follows: Assay B: OX2R IP1 (in vitro OX2R potency). It is filed as cell-based. As to conditions: Table 3; 0.5 nM Orexin A. The text has this: Activation of the orexin receptors expressed in cell lines results in an increase in intracellular IP3 concentration. IP1, a downstream metabolite of IP3, accumulates in cells following receptor activation and is stable in the presence of LiCl. Using Homogeneous Time-Resolved Fluorescence technology with Lumi4-Tb cryptate (commercially available from Cisbio Bioassay.) and a suitable fluorescence plate reader. […] Chem. Genomics 2009, 3, 22-32. This technique is used to characterize pharmacological modification of the orexin receptors.
B. In Vitro Testing of OX2R Potency: OX2R IP1
(§1) IP1 measurements are performed in CHO-K1 cells stably expressing the full-length human orexin 2 receptor and the aequorin photoprotein. Cells are cultivated in Ham's nutrient mixture F12 medium with 10% fetal calf serum, in a 37° C., 95% humidity and 5% CO2 incubator. The CHO-K1/hOx2 cell mass is expanded to larger cell numbers. The cells are obtained as frozen cells in cryo-vials and stored until use at −150° C. The viability of the cells after thawing is >90%. In preparation for the assay, 24 hours before the assay, the cells are thawed at 37° C. and immediately diluted with cell culture medium. After centrifugation, the cell pellet is resuspended in medium and then distributed into the assay plates with a density of 5000 cells/25 μL per well. The plates are incubated for one hour at room temperature to reduce edge effects before they are incubated for 24 hours at 37° C./5% CO2. Compounds are prepared by a 8-point serial dilution in DMSO and a final dilution step into assay buffer (HBSS with 20 mM HEPES, 0.1% BSA and 50 mM LiCl, pH 7.4) to ensure a final DMSO concentration of 1% in the assay.
(§2) On the day of the assay, cells in the plate are washed twice with 60 μL assay buffer (20 μL buffer remained in the wells after washing), followed by adding 5 μL per well of compounds diluted in assay buffer. After 15 minutes of incubation at room temperature 5 μL per well of Orexin A peptide (final concentration: 0.5 nM) dissolved in assay buffer is added to the assay plate. The assay plate is incubated for 60 minutes at 37° C. Then 5 μl per well of Anti-IP1-Cryptate Tb solution and 5 μl per well of IP1-d2 dilution are added to all well of the plate and the plate is incubated for a further 60 minutes light protected at room temperature. The emission at 615 nm and 665 nm (Excitation wavelength: 320 nm) are measured using an EnVision reader (PerkinElmer). The ratio between the emission at 665 nm and 615 is calculated by the reader.
8-point four parametric non-linear curve fitting and determination of […] values and Hill slopes is performed using a regular analysis software e.g. AssayExplorer (Accelrys). In order to establish an agonist concentration independent parameter, Kb values are calculated using the following equation: IC50/((2+(A/EC50)^n)^1/n−1) (with A=concentration agonist, EC50=EC50 agonist, n=Hill slope agonist) (see P. Leff, I. G. Dougall, Trends Pharmacol. Sci. 1993, 14(4), 110-112).

The target of assay [2] is T2, human Orexin 1 receptor (Homo sapiens, UniProt O43613).
T2 construct: stably expressing the full-length human Orexin 1 receptor; expressed in transfected cells; host or cells: CHO-K1 (CHO-K1/hOx1), co-expressing the aequorin photoprotein
T2 sequence (O43613 1-425): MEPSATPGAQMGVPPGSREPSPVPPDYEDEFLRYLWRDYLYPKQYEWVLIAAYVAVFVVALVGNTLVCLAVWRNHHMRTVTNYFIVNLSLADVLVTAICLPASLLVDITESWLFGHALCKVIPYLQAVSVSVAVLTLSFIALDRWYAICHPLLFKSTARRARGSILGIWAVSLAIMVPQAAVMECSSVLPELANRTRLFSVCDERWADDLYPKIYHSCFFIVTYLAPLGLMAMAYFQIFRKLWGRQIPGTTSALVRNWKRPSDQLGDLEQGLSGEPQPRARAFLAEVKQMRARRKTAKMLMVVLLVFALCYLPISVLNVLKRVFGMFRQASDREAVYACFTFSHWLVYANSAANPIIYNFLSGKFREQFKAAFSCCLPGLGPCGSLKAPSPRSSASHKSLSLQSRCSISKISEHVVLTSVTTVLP
Nature of the assay: Assay A: OX1R IP1 (in vitro OX1R potency). As to conditions: for Kb: Table 3, read-out: Assay A OX1R Kb (Orexin A concentration); for OX1R potency compared to Example 91 in WO2016/034882 / OX1R selectivity over OX2R (selectivity ratio OX2R Kb/OX1R Kb) compared to Example 91 in WO2016/034882 / OX1R selectivity compared to Example 14 in WO2016/034882: in words; for OX1R potency compared to Example 91 in WO2016/034882 / OX1R selectivity over OX2R (selectivity ratio OX2R Kb/OX1R Kb) compared to Example 91 in WO2016/034882: versus Example 91 in WO2016/034882; for OX1R selectivity compared to Example 14 in WO2016/034882: versus Example 14 in WO2016/034882. It is filed as cell-based.
Text: Activation of the orexin receptors expressed in cell lines results in an increase in intracellular IP3 concentration. IP1, a downstream metabolite of IP3, accumulates in cells following receptor activation and is stable in the presence of LiCl. Using Homogeneous Time-Resolved Fluorescence technology with Lumi4-Tb cryptate (commercially available from Cisbio Bioassay.) and a suitable fluorescence plate reader. […] This technique is used to characterize pharmacological modification of the orexin receptors.
A. In Vitro Testing of OX1R Potency: OX1R IP1
as §1, with “human Orexin 1” for “human orexin 2”, “The CHO-K1/hOx1” for “The CHO-K1/hOx2”, “C. […]” for “C. The viability of the cells after thawing is >90%.”, “is re-suspended” for “is resuspended”, “of 10000” for “of 5000”, “by an” for “by a”
as §2, with “0.5 nM and/or 50” for “0.5”, “added” for “added to all well of the plate”, “temperature.” for “temperature. The emission at 615 nm and 665 nm (Excitation wavelength: 320 nm) are measured using an EnVision reader (PerkinElmer). The ratio between the emission at 665 nm and 615 is calculated by the reader.”
8-point four parametric non-linear curve fitting and determination of IC50 values and Hill slopes is performed using a regular analysis software e.g. AssayExplorer (Accelrys). In order to establish an agonist concentration independent parameter, Kb values are calculated using the following equation: IC50/((2+(A/EC50)^n)^1/n−1) (with A=concentration agonist, EC50=EC50 agonist, n=Hill slope agonist).

Consider `CCN(C(=O)c1ccc(C)cc1-n1nccn1)[C@@H](C)COc1ncc(C(F)(F)F)cn1` [Example 13], for which the Kb came to 142 nM in assay [1], 0.5 nM in assay [2] (0.5 nM Orexin A) and 0.38 nM in assay [2] (50 nM Orexin A). For the same compound, the “OX1R potency compared to Example 91 in WO2016/034882” value in assay [2] is on record as “increase”. Further, the “OX1R selectivity over OX2R (selectivity ratio OX2R Kb/OX1R Kb) compared to Example 91 in WO2016/034882” value in assay [2] is given as “increase”.
In the case of `CCN(C(=O)c1ccc(F)cc1-c1ncccn1)[C@@H](C)COc1ncc(C(F)(F)F)cn1` [Example 25], the Kb is 272 nM in assay [1], 0.81 nM in assay [2] (0.5 nM Orexin A) and 1.4 nM in assay [2] (50 nM Orexin A).
`CCN(C(=O)c1ccccc1-c1nc(C)no1)[C@@H](C)COc1ncc(C(F)(F)F)cn1` [Example 15] registered a Kb in assay [1] of 999 nM. Further, in assay [2], the “OX2R Kb/OX1R Kb” value amounted to 128 and the “OX1R selectivity over OX2R (selectivity ratio OX2R Kb/OX1R Kb) compared to Example 91 in WO2016/034882” value is on record as “increase in OX1R selectivity”. Moreover, the Kb in assay [2] (0.5 nM Orexin A) turned out to be 7.8 nM.
`CCN(C(=O)c1cccc(F)c1-c1ncccn1)[C@@H](C)COc1ncc(C(F)(F)F)cn1` [Example 32]: the values for the Kb in assay [1], in assay [2] (0.5 nM Orexin A) and in assay [2] (50 nM Orexin A) were 188 nM, 0.61 nM and 0.46 nM, respectively. Further, the “OX1R selectivity compared to Example 14 in WO2016/034882” value in assay [2] is “increase in OX1R selectivity”.
The compound `CCN(C(=O)c1cccc(F)c1-n1nccn1)[C@@H](C)COc1ncc(Br)cn1` [Example 29] gave a Kb in assay [1] of 350 nM. For the same compound, in assay [2], the “OX2R Kb/OX1R Kb” value was found to be 178 and the “OX1R selectivity over OX2R (selectivity ratio OX2R Kb/OX1R Kb) compared to Example 91 in WO2016/034882” value is on record as “increase in OX1R selectivity”. The Kb in assay [2] (0.5 nM Orexin A) was 2 nM.
As to `CCN(C(=O)c1ccc(C)c(C)c1-n1nccn1)[C@@H](C)COc1ncc(C(F)(F)F)cn1` [Example 10], the Kb in assay [1] was 565 nM. Also, in assay [2], the “OX2R Kb/OX1R Kb” value is on record as 869, the “OX1R potency compared to Example 91 in WO2016/034882” value is on record as “increase” and the “OX1R selectivity over OX2R (selectivity ratio OX2R Kb/OX1R Kb) compared to Example 91 in WO2016/034882” value is “increase”. For the same compound, in assay [2] (50 nM Orexin A), the Kb worked out at 0.65 nM.
For `CCN(C(=O)c1cc(C)ccc1-n1nccn1)[C@@H](C)COc1ncc(C(F)(F)F)cn1` [Example 5], the Kb in assay [1] was determined as 156 nM; in assay [2] (0.5 nM Orexin A), 1 nM; in assay [2] (50 nM Orexin A), 1.1 nM. In assay [2], the “OX1R potency compared to Example 91 in WO2016/034882” value is reported as “increase”. Also, the “OX1R selectivity over OX2R (selectivity ratio OX2R Kb/OX1R Kb) compared to Example 91 in WO2016/034882” value in assay [2] is reported as “increase”.
Take `CCN(C(=O)c1ccccc1-c1ncccn1)[C@@H](C)COc1ncc(C(F)(F)F)cn1` [Example 28]: the Kb in assay [1] amounted to 176 nM; in assay [2] (0.5 nM Orexin A), 0.62 nM; in assay [2] (50 nM Orexin A), 0.74 nM. Further, the “OX1R selectivity compared to Example 14 in WO2016/034882” value in assay [2] was “increase in OX1R selectivity”.
As to `CCN(C(=O)c1ccccc1-c1cnc(C)o1)[C@@H](C)COc1ncc(C(F)(F)F)cn1` [Example 31], the Kb in assay [1] turned out to be 746 nM. In assay [2], the “OX2R Kb/OX1R Kb” value was determined as 124 and the “OX1R selectivity over OX2R (selectivity ratio OX2R Kb/OX1R Kb) compared to Example 91 in WO2016/034882” value was “increase in OX1R selectivity”. Further, in assay [2] (0.5 nM Orexin A), the Kb came to 6 nM.
For `CCN(C(=O)c1cc(C)c(C)cc1-n1nccn1)[C@@H](C)COc1ncc(C(F)(F)F)cn1` [Example 2], the Kb was determined as 34 nM in assay [1] and 0.39 nM in assay [2] (50 nM Orexin A). Moreover, the “OX2R Kb/OX1R Kb” value in assay [2] was 87. For the same compound, in assay [2], the “OX1R potency compared to Example 91 in WO2016/034882” value is “increase in OX1R potency”.
Take `CCN(C(=O)c1cccc(C)c1-c1nnc(C)o1)[C@@H](C)COc1ncc(C(F)(F)F)cn1` [Example 21]: the Kb in assay [1] was determined as 540 nM; in assay [2] (0.5 nM Orexin A), 2 nM; in assay [2] (50 nM Orexin A), 1.9 nM. Besides, in assay [2], the “OX1R selectivity over OX2R (selectivity ratio OX2R Kb/OX1R Kb) compared to Example 91 in WO2016/034882” value is “increase in OX1R selectivity”.
As for `CCN(C(=O)c1ccccc1-n1nccn1)[C@@H](C)COc1ncc(C(F)(F)F)cn1` [Example 24], the figures for the Kb in assay [1], in assay [2] (0.5 nM Orexin A) and in assay [2] (50 nM Orexin A) were 237 nM, 1.8 nM and 2.6 nM, respectively.
`CCN(C(=O)c1cc(F)ccc1-n1nccn1)[C@@H](C)COc1ncc(C(F)(F)F)cn1` [Example 20]: the Kb in assay [1] turned out to be 803 nM. For the same compound, in assay [2], the “OX2R Kb/OX1R Kb” value is 309 and the “OX1R selectivity over OX2R (selectivity ratio OX2R Kb/OX1R Kb) compared to Example 91 in WO2016/034882” value is “more selective”. Further, the Kb in assay [2] (0.5 nM Orexin A) stood at 2.6 nM.
In the same order, the values of `CCN(C(=O)c1ccc(F)c(F)c1-n1nccn1)[C@@H](C)COc1ncc(C(F)(F)F)cn1` [Example 35] are 455 nM, 182, “more selective” and 2.5 nM.
In the same order, the values of `CCN(C(=O)c1ccccc1-c1noc(C)n1)[C@@H](C)COc1ncc(C(F)(F)F)cn1` [Example 23] are 435 nM, 207, “increase in OX1R selectivity” and 2.1 nM.
